Here are results for 2 compounds from US6083741A, “Internalisation of DNA, using conjugates of poly-l-lysine and an integrin receptor ligand” (Imperial College of Science Technology and Medicine, priority 1994, dated 2000).

The subject of data set [1] is (Caco-2) colonic epithelial cells. In words: Luciferase reporter gene (pGL2) internalisation and expression in Caco-2 cells. The format is cell-based. Conditions: 5 μg pGL2 plasmid. As for the experimental part:
(§1) 5 μg of a luciferase reporter gene plasmid (pGL2 promega) was complexed with either the RGD-polylysine construct (possible structure of complex is shown in FIG. 1) or an equal concentration of polylysine in 100 μl of Optimem media (Gibco). The DNA/peptide complexes and also a DNA only control were then applied to 50% confluent cultured (Caco-2) colonic epithelial cells which were then allowed to express for 48 hours. The cells were then harvested and the cellular protein analysed for luciferase activity (Relative Light Units). The activity shown in FIG. 2 is adjusted to represent activity from 1 mg of cellular protein. In FIG. 2 the term "RGD peptide" is used to indicate the polylysine-integrin receptor binding protein described in Example 1.
The procedure described in Example 2 was repeated but using the polylysine-integrin receptor binding peptide described in Example 3 instead of the polylysine-integrin receptor binding peptide described in Example 1. Control experiments were also performed.
The polylysine-integrin receptor binding peptide of Example 1 was used in a repeat of the procedure of Example 2, but using 1 μg of luciferase reporter gene plasmid. The effect of chloroquine was also investigated.
A general note: In a reporter assay the amount or activity of a reporter protein is the signal.

A further data set concerns COS-7 cells. In words: Luciferase reporter gene transfection of COS-7 cells. It is filed as cell-based. Conditions: 200 μm chloroquine. The protocol:
as §1
The polylysine-integrin receptor binding peptide of Example 1 was again used. Essentially the methodology of Example 2 was followed with the substitution of COS-7 cells, and the use of different concentrations of chloroquine. It can be seen that 200 μm chloroquine gave a 4-fold increase of expression, compared with no chloroquine.
The methodology of Example 2 was repeated using COS-7 cells. In this experiment, different ratios of the K16 RGD peptide DNA were used with and without 100 μm chloroquine, with the results shown in FIG. 7. It can be seen that the optimum ratio was 37.5:1 in both the absence and presence of chloroquine.

For (K)16 GGCRGDMFGCA [Example 3], in data set [1] (100 μM chloroquine vs no chloroquine), the “improvement of expression by addition of chloroquine” value was around 2 fold. Also, in data set [1] (absence of chloroquine, 48 hours expression, indirect comparison of FIG. 2 and FIG. 3), the “optimal peptide-DNA transfection efficiency (luciferase activity, Relative Light Units per mg cellular protein)” value is ~6×10^7 RLU/mg.

As to `CCN(CC)CCCC(C)Nc1ccnc2cc(Cl)ccc12` (stereo not drawn) [chloroquine], the cytopathic effects entry in the data set with COS-7 cells was “cytopathic effects of chloroquine were apparent”.
